Data taken from ChEMBL document CHEMBL4765356, “Synthesis and biological evaluation of thiophenylbenzofuran derivatives as potential P-glycoprotein inhibitors” (Eur J Med Chem, 2020).

What was measured:
HeLa = experiment: Cytotoxicity against human HeLa cells assessed as reduction in cell viability measured after 72 hrs by SRB assay; format: cell-based
[1] = Cytotoxicity against Flp-In-293 cells expressing human ABCB1 assessed as reduction in cell viability measured after 72 hrs by SRB assay; format: ADME, cell-based; details: Flp-In-293, 72 h
[2] = Cytotoxicity against human KB-VIN cells assessed as reduction in cell viability measured after 72 hrs by SRB assay; format: cell-based; details: KBVIN
[3] = Cytotoxicity against Flp-In-293 cells assessed as reduction in cell viability measured after 72 hrs by SRB assay; format: cell-based; details: Homo sapiens, Flp-In-293, 72 h

Measured: IC50

COc1ccc(CCN(C)CCCC(C#N)(c2ccc(OC)c(OC)c2)C(C)C)cc1OC (centres undefined)
> 50 µM: HeLa | [1] | [2] | [3]
